This note sets out measurements from ChEMBL document CHEMBL4024726, “An integrated approach towards the discovery of novel non-nucleoside Leishmania major pteridine reductase 1 inhibitors” (Eur J Med Chem, 2017).

The target in experiment [1] is T1, Pteridine reductase 1 (Leishmania major) (UniProt Q01782).
T1 sequence (whole entry): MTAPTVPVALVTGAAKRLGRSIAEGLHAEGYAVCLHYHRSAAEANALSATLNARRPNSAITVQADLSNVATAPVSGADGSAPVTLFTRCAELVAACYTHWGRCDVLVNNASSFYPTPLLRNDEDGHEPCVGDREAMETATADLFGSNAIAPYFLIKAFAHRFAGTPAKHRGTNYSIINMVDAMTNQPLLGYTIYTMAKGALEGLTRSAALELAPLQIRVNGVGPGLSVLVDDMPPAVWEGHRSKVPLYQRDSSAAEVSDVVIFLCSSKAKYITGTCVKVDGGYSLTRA
Description: Binding affinity to Leishmania major PTR1 BL21(DE3) assessed as change in melting temperature at 50 uM by SYPRO orange dye based RT-PCR analysis.

The target of experiment [2] is T1, Pteridine reductase 1 (Leishmania major). Description: Binding affinity to Leishmania major PTR1 BL21(DE3) assessed as change in melting temperature by SYPRO orange dye based RT-PCR analysis.
Experiment [3] has the same target. Description: Noncompetitive inhibition of Leishmania major PTR1 at 1 mM in presence of saturating concentration of biopterin and varying levels of NADPH by spectrofluorimetric method.
The target is the same in experiment [4]. Description: Noncompetitive inhibition of Leishmania major PTR1 at 1 mM in presence of varying levels of biopterin and constant NADPH level by spectrofluorimetric method.
For experiment [5] the target is unchanged. Description: Competitive inhibition of Leishmania major PTR1 assessed as decrease in thermal shift stabilization at 1 mM in presence of varying levels of biopterin and constant NADPH level by spectrofluorimetric method.
For experiment [6] the target is unchanged. Description: Competitive inhibition of Leishmania major PTR1 assessed as decrease in thermal shift stabilization at 1 mM in presence of saturating concentration of biopterin and varying levels of NADPH by spectrofluorimetric method.
The target is the same in experiment [7]. Description: Inhibition of Leishmania major PTR1 at 50 uM using biopterin as substrate and NADPH as cofactor by spectrofluorimetric method relative to control.
The target in a further experiment is T2, Pteridine reductase 1 (Leishmania major, UniProt Q01782).
T2 sequence (Q01782 whole entry): T1 sequence (whole entry)
Description: Inhibition of Leishmania major PTR1 using biopterin as substrate and NADPH as cofactor by spectrofluorimetric method.

Calls of active or inactive are those of the source. The calls are words filed in the database; no cut-off is given here.

Regarding `CC(N(C)Cc1nc2ccccc2c(=O)[nH]1)C(C)(C)C` (stereo not given), the thermal shift (ΔTm) (as a rule, the change in melting temperature against a reference sample) in experiment [1] was found to be 0.91 °C. The Activity result in experiment [2] was “Dose-dependent effect”. Also, the inhibition result in experiment [3] and in experiment [4] was “Active” each time.

For `Cc1sc2ncnc(N/N=C/c3ccccc3)c2c1C`, the shift in melting temperature (ΔTm) in experiment [1] turned out to be 1.02 °C. Also, the Activity entry in experiment [2] was “Dose-dependent effect”. The inhibition result in experiment [5] and in experiment [6] was “Active” throughout. Moreover, the inhibition (commonly the drop in the measured response relative to a control, in per cent) in experiment [7] is over 50%. Further, half-maximal inhibition at Pteridine reductase 1 (IC50) was put at 32.3 µM.
